US11530233B2, “Beta-nicotinate ester nucleotides and processes for preparing same” (Cornell University, priority 2017, dated 2022)

Experiments:
HEK-293 cells = assay: NAD+ concentration in HEK-293 cells after treatment with nicotinic acid ester mononucleotides (NAD+ cycling assay); format: cell-based, human; conditions: HEK293, 24 hr incubation
Protocol: L. et al., Arch. Biochem. Biophys., 175: 627-634 (1976)). The cells were washed with PBS, counted by haemocytometry and pelleted. The cells were then treated with 7% perchloric acid, and then neutralized with 1 M NaOH and 500 mM potassium phosphate pH 8.5. NAD^+ contents were then measured on a plate reader using diaphorase and lactate dehydrogenase using Resazurin as a dye that is reduced to rezarufin (emission 560 nm). NAD^+ levels were quantitated using a standard curve using known NAD^+ concentrations. NAD^+ concentrations are determined to nmol NAD^+/10^6 cells. All values in Table 1 are listed as compared to control.

HEK293 cells = assay: Intracellular NAD+ levels in HEK293 cells after 8 h incubation with NaMN or NR; format: cell-based, human; conditions: 1 mM, HEK293, FIG. 4
Protocol: (§1) The ability of nicotinic acid mononucleotide, NaMN, to serve as an NAD^+ enhancing agent in mammalian cell lines, Neuro2a and HEK293 cells was examined after an 8 h incubation. NaMN was added to cell growth media at a concentration of 1 mM. All cell treatments were done in duplicate. Nicotinamide riboside (NR) at 1 mM concentration was performed as a positive control. Untreated cells served as negative controls. Cells were treated for the allotted time then harvested by trysin detachment and pelleting. Cells were counted by haemocytometer and then lysed by treatment with 100 μL perchloric acid (7%). Lysates were then neutralized by treatment with NaOH and K2PO4 solutions. NAD^+ concentrations were determined by a daphorase-based assay. NAD^+ standards were also run to establish a standard curve. The results are graphically depicted in FIG. 4.

Neuro2a cells = assay: Intracellular NAD+ levels in Neuro2a cells after 8 h incubation with NaMN or NR; format: cell-based; conditions: 1 mM, FIG. 4
Protocol: as §1

SMILES	NAD^+ Level (% versus control) (HEK-293 cells; 25 μM)	NAD^+ Level (% versus control) (HEK-293 cells; 100 μM)	NAD^+ Level (% versus control) (HEK-293 cells; 500 μM)	intracellular NAD^+ content versus untreated cells (HEK293 cells)	intracellular NAD^+ content versus untreated cells (Neuro2a cells)	NAD^+ Level (% versus control) (HEK-293 cells; 200 μM)
CCCCCCOC(=O)c1ccc[n+]([C@@H]2O[C@H](COP(=O)([O-])O)[C@H](O)[C@@H]2O)c1 [compound 5d, ((2R,3R,4S,5R)-3,4-dihydroxy-5-(3-(hexyloxycarbonyl)pyridin-1-ium-1-yl)tetrahydrofuran-2-yl)methyl hydrogen phosphate]	136 ± 26 % versus control	162 ± 15 % versus control	146 ± 48 % versus control			
CCCCOC(=O)c1ccc[n+]([C@@H]2O[C@H](COP(=O)([O-])O)[C@H](O)[C@@H]2O)c1 [compound 5b, ((2R,3R,4S,5R)-3,4-dihydroxy-5-(3-(butoxycarbonyl)pyridin-1-ium-1-yl)tetrahydrofuran-2-yl)methyl hydrogen phosphate]	104 ± 29 % versus control	165 ± 31 % versus control	103 ± 32 % versus control			
CCCCCCCOC(=O)c1ccc[n+]([C@@H]2O[C@H](COP(=O)([O-])O)[C@H](O)[C@@H]2O)c1 [compound 5e, ((2R,3R,4S,5R)-3,4-dihydroxy-5-(3-(heptyloxycarbonyl)pyridin-1-ium-1-yl)tetrahydrofuran-2-yl)methyl hydrogen phosphate]	152 ± 19 % versus control	150 ± 11 % versus control	123 ± 21 % versus control			
NC(=O)c1ccc[n+]([C@@H]2O[C@H](CO)[C@@H](O)[C@H]2O)c1 [NR, Nicotinamide riboside]				increased NAD^+ contents in cells	increased NAD^+ contents in cells	
CCCCCOC(=O)c1ccc[n+]([C@@H]2O[C@H](COP(=O)([O-])O)[C@H](O)[C@@H]2O)c1 [compound 5c, ((2R,3R,4S,5R)-3,4-dihydroxy-5-(3-(pentyloxycarbonyl)pyridin-1-ium-1-yl)tetrahydrofuran-2-yl)methyl hydrogen phosphate]	80 ± 21 % versus control	105 ± 26 % versus control	124 ± 27 % versus control			171 ± 18 % versus control
CCCCCCCCOC(=O)c1ccc[n+]([C@@H]2O[C@H](COP(=O)([O-])O)[C@H](O)[C@@H]2O)c1 [compound 5f, ((2R,3R,4S,5R)-3,4-dihydroxy-5-(3-(octyloxycarbonyl)pyridin-1-ium-1-yl)tetrahydrofuran-2-yl)methyl hydrogen phosphate]						90 ± 8.7 % versus control
O=C(O)c1ccc[n+]([C@@H]2O[C@H](COP(=O)(O)O)[C@@H](O)[C@H]2O)c1 [NaMN, nicotinic acid mononucleotide]				No intracellular increase in NAD^+	No intracellular increase in NAD^+	
